Data published in patent US8524917B2, “6-substituted indole-3-carboxylic acid amide compounds having sphingosine-1-phosphate (S1P) receptor antagonist biological activity” (Allergan, Inc., priority 2007, dated 2013).
Like-named read-outs stand apart in the source and are kept apart here.

Target: human S1P3 receptor (Homo sapiens (Human), UniProt Q99500)
Assay: Activation or block of activation of human S1P3 receptor, Ca+2 FLIPR assay
Format: cell-based
In short: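 T24 cells stably expressing human S1P3, grown in charcoal-treated FBS, dye-loaded and read on FLIPR for calcium after ligand addition in HBSS/20 mM HEPES (1 s readings for 75 s, then every 10 s for 2.5 min). Agonist or antagonist mode; S1P positive control in 4 mg/ml fatty-acid-free BSA. IC50 by Levenberg–Marquardt regression.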

[1] = T24 cells stably expressing the human S1P3 receptor, FLIPR Ca+2 response, 0.61 nM to 10,000 nM, read-out: S1P3 IC50
[2] = T24 cells stably expressing the human S1P3 receptor, value in brackets

Chain of human S1P3 receptor (Q99500 whole entry): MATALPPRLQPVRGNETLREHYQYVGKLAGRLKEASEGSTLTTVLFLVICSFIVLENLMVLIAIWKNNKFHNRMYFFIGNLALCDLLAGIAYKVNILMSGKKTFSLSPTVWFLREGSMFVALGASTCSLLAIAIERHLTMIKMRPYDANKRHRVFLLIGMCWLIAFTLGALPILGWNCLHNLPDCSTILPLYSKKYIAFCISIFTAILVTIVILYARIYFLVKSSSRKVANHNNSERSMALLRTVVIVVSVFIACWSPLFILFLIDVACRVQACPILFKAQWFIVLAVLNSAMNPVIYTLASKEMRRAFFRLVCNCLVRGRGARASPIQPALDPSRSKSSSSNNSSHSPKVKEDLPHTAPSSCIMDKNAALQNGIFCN

SMILES	S1P3 (% inh)	IC50 [1]	S1P3 (% inh) [2]	also measured
CC(C)c1c(C(=O)NCc2ccc(F)c(F)c2)c2ccc(NC3CCC3)cc2n1Cc1ccccc1 [Compound 190, 1-Benzyl-6-(cyclobutylamino)-N-(3,4-difluorobenzyl)-2-isopropyl-1H-indole-3-carboxamide]	13 nM (100) %			IC50 (read-out: S1P3 IC50): 0.013 µM
CCO/N=C(\C)c1ccc2c(C(=O)NCc3ccc(F)c(F)c3)c(C(C)C)n(Cc3ccccc3)c2c1		0.262 µM	98%	
CC(C)c1c(C(=O)NCc2ccc(F)c(F)c2)c2ccc(Oc3ncc(Br)s3)cc2n1Cc1ncco1 [Compound 215, 6-(5-Bromothiazol-2-yloxy)-N-(3,4-difluorobenzyl)-2-isopropyl-1-(oxazol-2-ylmethyl)-1H-indole-3-carboxamide]		0.023 µM	99%	
CC(C)Oc1ccc2c(C(=O)NCc3ccc(F)c(F)c3)c(C3=NCCO3)n(Cc3ccccn3)c2c1 [Compound 104, N-(3,4-Difluorobenzyl)-2-(4,5-dihydrooxazol-2-yl)-6-isopropoxy-1-(pyridin-2-ylmethyl)-1H-indole-3-carboxamide]		3.9 µM	50%	
CC(C)c1c(C(=O)NCc2ccc(F)c(F)c2)c2ccc(OC3CCNC3)cc2n1Cc1ccccc1 (stereo not drawn)		2.4 µM	80%	
CC[C@H]1COC(c2ccc3c(C(=O)NCc4ccc(F)c(F)c4)c(C(C)C)n(Cc4ccccn4)c3c2)=N1 [Compound 80, (S)—N-(3,4-Difluorobenzyl)-6-(4-ethyl-4,5-dihydrooxazol-2-yl)-2-isopropyl-1-(pyridin-2-ylmethyl)-1H-indole-3-carboxamide]		0.007 µM	99%	
CCCOc1ccc2c(C(=O)NCc3ccc(F)c(F)c3)c(C(C)C)n(Cc3ccccc3)c2c1 [Compound 10, 1-Benzyl-N-(3,4-difluorobenzyl)-2-isopropyl-6-propoxy-1H-indole-3-carboxamide]				Kb (T24 cells stably expressing the human S1P3 receptor, second concentration in the cell, read-out: S1P3 Kb): 0.002 µM
CC(C)c1c(C(=O)NCc2ccc(F)c(F)c2)c2ccc(Oc3nccs3)cc2n1Cc1ccccn1 [Compound 150, N-(3,4-Difluorobenzyl)-2-isopropyl-1-(pyridin-2-ylmethyl)-6-(thiazol-2-yloxy)-1H-indole-3-carboxamide]		0.005 µM	100%	
CC(C)c1c(C(=O)NCc2ccc(F)c(F)c2)c2ccc(Oc3nccs3)cc2n1Cc1ncco1 [Compound 214, N-(3,4-Difluorobenzyl)-2-isopropyl-1-(oxazol-2-ylmethyl)-6-(thiazol-2-yloxy)-1H-indole-3-carboxamide]		0.053 µM	100%	
CC(C)c1c(C(=O)NCc2cncc(F)c2)c2ccc(OC3CCCC3)cc2n1Cc1ccccn1 [Compound 148, 6-(Cyclopentyloxy)-N-((5-fluoropyridin-3-yl)methyl)-2-isopropyl-1-(pyridin-2-ylmethyl)-1H-indole-3-carboxamide]	13 nM (100) %			IC50 (read-out: S1P3 IC50): 0.013 µM
CC(C)Oc1ccc2c(C(=O)NCc3ccc(F)c(F)c3)c(C(C)O)n(Cc3ccccn3)c2c1 (stereo not drawn) [Compound 108, N-(3,4-Difluorobenzyl)-2-(1-hydroxyethyl)-6-isopropoxy-1-(pyridin-2-ylmethyl)-1H-indole-3-carboxamide]		0.015 µM	98%	
CC(C)c1c(C(=O)NCc2ccc(F)c(F)c2)c2ccc(OC3CCCC3)cc2n1Cc1cccnc1 [Compound 153, 6-(Cyclopentyloxy)-N-(3,4-difluorobenzyl)-2-isopropyl-1-(pyridin-3-ylmethyl)-1H-indole-3-carboxamide]	5 nM (99) %			IC50 (read-out: S1P3 IC50): 0.005 µM
CC(C)c1c(C(=O)NCc2cncc(F)c2)c2ccc(C3=N[C@@H](C)CO3)cc2n1Cc1ccccc1 [Compound 72, (S)-1-Benzyl-N-((5-fluoropyridin-3-yl)methyl)-2-isopropyl-6-(4-methyl-4,5-dihydrooxazol-2-yl)-1H-indole-3-carboxamide]	43 nM (99) %			IC50 (read-out: S1P3 IC50): 0.043 µM
CCOC(=O)c1ccc2c(C(=O)NCc3cccnc3)c(C(C)C)n(Cc3ccccc3)c2c1	187 nM (95) %			IC50: 0.187 µM
C#CCNC(=O)c1ccc2c(C(=O)NCc3ccc(F)c(F)c3)c(C(C)C)n(Cc3ccccc3)c2c1 [Compound 69, 1-Benzyl-N3-(3,4-difluorobenzyl)-2-isopropyl-N6-(prop-2-ynyl)-1H-indole-3,6-dicarboxamide]		5 µM	98%	
CC(C)c1c(C(=O)NCc2ccc(F)c(F)c2)c2ccc(CO)cc2n1Cc1ccccc1 [Compound 52, 1-Benzyl-N-(3,4-difluorobenzyl)-6-(hydroxymethyl)-2-isopropyl-1H-indole-3-carboxamide]		2 µM	85%	
CC(C)c1c(C(=O)NCc2ccc(F)c(F)c2)c2ccc(OC3CCCO3)cc2n1Cc1ccccn1 (stereo not drawn) [drawing 169]		0.009 µM	100%	
CC[C@H]1COC(c2ccc3c(C(=O)NCc4cncc(F)c4)c(C(C)C)n(Cc4ccccc4)c3c2)=N1 [Compound 73, (S)-1-Benzyl-6-(4-ethyl-4,5-dihydrooxazol-2-yl)-N-((5-fluoropyridin-3-yl)methyl)-2-isopropyl-1H-indole-3-carboxamide]		0.035 µM	100%	
CC(=NO)c1c(C(=O)NCc2ccc(F)c(F)c2)c2ccc(OC(C)C)cc2n1Cc1ccccn1 (stereo in doubt) [Compound 110, (E)-N-(3,4-Difluorobenzyl)-2-(1-(hydroxyimino)ethyl)-6-isopropoxy-1-(pyridin-2-ylmethyl)-1H-indole-3-carboxamide]	384 nM (100) %			IC50: 0.384 µM
CC(C)c1c(C(=O)NCc2ccc(F)c(F)c2)c2ccc(OC3CCC3)cc2n1Cc1cccnc1 [Compound 165, 6-Cyclobutoxy-N-(3,4-difluorobenzyl)-2-isopropyl-1-(pyridin-3-ylmethyl)-1H-indole-3-carboxamide]		0.007 µM	100%	
CC(C)COc1ccc2c(C(=O)NCc3cccnc3)c(C(C)C)n(Cc3ccccn3)c2c1	124 nM (99) %			IC50: 0.124 µM
COCOc1ccc2c(C(=O)NCc3ccc(F)c(F)c3)c(C(C)C)n(Cc3ccccc3)c2c1 [Compound 26, 1-Benzyl-N-(3,4-difluorobenzyl)-2-isopropyl-6-(methoxymethoxy)-1H-indole-3-carboxamide]	39 nM (100) 13 nM %			Kb: 0.013 µM; IC50 (read-out: S1P3 IC50): 0.039 µM
CC(C)c1c(C(=O)NCc2ccc(F)c(F)c2)c2ccc(/C=N/OC(C)(C)C)cc2n1Cc1ccccc1		0.145 µM	99%	
CCCOc1ccc2c(C(=O)NCc3cccnc3)c(C(C)C)n(Cc3ccccn3)c2c1		1.2 µM	99%	
CCCOc1ccc2c(C(=O)NCc3ccc(F)c(F)c3)c(C(C)C)n(Cc3ncco3)c2c1 [Compound 212, N-(3,4-Difluorobenzyl)-2-isopropyl-1-(oxazol-2-ylmethyl)-6-propoxy-1H-indole-3-carboxamide]	393 nM (100) %			IC50 (read-out: S1P3 IC50): 0.393 µM
CC(C)OC(=O)c1ccc2c(C(=O)NCc3ccc(F)c(F)c3)c(C(C)C)n(Cc3ccccc3)c2c1		0.045 µM	99%	
CC(C)c1c(C(=O)NCc2ccc(F)c(F)c2)c2ccc(OC3CCOCC3)cc2n1Cc1ccccn1 [Compound 143, N-(3,4-Difluorobenzyl)-2-isopropyl-1-(pyridin-2-ylmethyl)-6-(tetrahydro-2H-pyran-4-yloxy)-1H-indole-3-carboxamide]		0.036 µM	99%	
